Laboratory results published in patent US20220249352A1, “MICROPARTICLES BASED ON ESTER DERIVATIVES OF HYALURONAN, METHOD OF PRODUCTION, COMPOSITION COMPRISING THEREOF AND USE THEREOF” (CONTIPRO A.S., priority 2019, published 2022).

Columns and labels:
[1] = tested on: SQLE mRNA expression in HaCaT keratinocyte cells; assay: Expression of cholesterol synthesis gene SQLE (QRT-PCR); format: cell-based; conditions: HaCaT keratinocytes, 48 hours
Method: (§1) This example illustrates the expressional changes in keratinocyte cholesterol metabolism pathway components (upon treatment with HA−ATRA (prepared as described in examples 5, 9), unbound ATRA and HA (HA+ATRA), hyaluronan (HA), untreated control (CTRL), retinoic isomers (13-cis-RET) and 9 cis (9-cis-RET). The HaCaT keratinocyte cells were individually treated with the compounds described below for 48 hours and sampled in the indicated times. The mRNA expression of HMGCS1, SQLE and DHRS3 was analyzed with quantitative real-time PCR (QRT-PCR) using a StepOnePlus (ThermoFisher, Waltham, Mass., USA). Briefly, 500 ng of total RNA was transcribed to cDNA (High-Capacity cDNA Reverse Transcription Kit, ThermoFisher, Waltham, Mass., USA). Approximately 5 ng of cDNA was used for QRT-PCR reaction in 10 μl volume. The TaqMan assays (all from ThermoFisher, Waltham, Mass., USA) used were: HMGCS1 (Hs00940429_m1), SQLE (Hs01123768_m1), DHRS3 (Hs01044021_m1) and RPL13A (Hs04194366_g1). Duplicate reaction tubes were set up for each sample. All expression values for HMGCS1, SQLE and DHRS3 were related to the amount of the housekeeping gene RPL13A to correct for variations in RNA levels and efficiency in cDNA synthesis. Regarding the analyzed enzyme involved in cholesterol synthesis, only treatment with microparticles of HA−ATRA increased the expression of HMGCS1 and SQLE, all samples containing retinoids increased expression of positive control DHRS3 (FIG. 10). However, microparticles HA−ATRA can upregulate cholesterol synthesis gene HMGCS1 like when the molarity of the retinoic acid bound to HA is the same in both treatments, this is shown in FIG. 11.

[2] = tested on: HMGCS1 mRNA expression in HaCaT keratinocyte cells; assay: Expression of cholesterol synthesis gene HMGCS1 (QRT-PCR); format: cell-based; conditions: HaCaT keratinocytes, 48 hours
Method: as §1

[3] = Thermogravimetric analysis (TGA), thermal decomposition; format: physicochemical
Method: In this disclosure, it is further reported that the amount of active ATRA is conserved after four weeks of storage at 40° C., in the absence of any further toxic antioxidant, which is an advantage to the previously reported art such as US 20190015366 A1 and WO2015092602A1, that require the presence of the toxic benzoyl peroxide, which have been reported as an inductor of photo-carcinogenesis in hairless mice after solar radiation. Similar art was reported in US20100166852A1. In the present embodiments, the microparticles made of HA−ATRA were stored for prolonged times in the presence of air the microparticles are stable, while the obtained powders degraded faster (FIGS. 2 and 4). […] In this disclosure, the thermal decomposition of the HA−ATRA microparticles was compared with the native polysaccharide and pure retinoic acid using thermogravimetric analysis (TGA) according to de Mendonça CMS, de Barros Lima IP, Aragão CFS, Gomes APB in Thermal compatibility between hydroquinone and retinoic acid in pharmaceutical formulations. Journal of Thermal Analysis and calorimetry 2014; 115:2277-85.
In brief, the TGA (Thermogravimetric analyses) was performed on the microparticles on a […]. About 2 mg of powder was accurately weighed samples were loaded into aluminum pans and analyzed. […]

SMILES: CC(C=CC1=C(C)CCCC1(C)C)=CC=CC(C)=CC(=O)O [ATRA, 3,7-dimethyl-9-(2,6,6-trimethyl-1-cyclohexene-1-yl)-2,4,6,8-nonatetraenoic acid]
- expression of SQLE [1]: did not induce
- expression of HMGCS1 [2]: did not induce
- temperature range of decomposition (three stages, TG curve) [3]: 185−609 °C

SMILES: CC1=C(/C=C/C(C)=C/C=C/C(C)=C\C(=O)O)C(C)(C)CCC1 [13-cis retinoic acid]
- expression of SQLE [1]: neither unbound 9-cis retinoic nor 13-cis retinoic acid were able to upregulate
- expression of HMGCS1 [2]: neither unbound 9-cis retinoic nor 13-cis retinoic acid were able to upregulate

SMILES: CC1=C(/C=C/C(C)=C\C=C\C(C)=C\C(=O)O)C(C)(C)CCC1 [9-cis retinoic, 9-cis retinoic acid]
- expression of SQLE [1]: neither unbound 9-cis retinoic nor 13-cis retinoic acid were able to upregulate
- expression of HMGCS1 [2]: neither unbound 9-cis retinoic nor 13-cis retinoic acid were able to upregulate
